Experimental data from publication PMC5352738, “Characterization of three pyranose dehydrogenase isoforms from the litter-decomposing basidiomycete Leucoagaricus meleagris (syn. Agaricus meleagris)” (Applied Microbiology and Biotechnology, 2016).

What was measured:
Format in all cases: biochemical
AmPDH1 [1] = molecular target: T1, AmPDH1 (Macropsalliota meleagris, UniProt Q3L245); assay: steady-state ferrocenium assay, […] nm; details: electron donor; 0.2 mM ferrocenium, 50 mM Na phosphate pH 7.5, 30 °C; read-out: AmPDH1 / K m
T1 construct: gene pdh1; full-length pdh1 (602 aa precursor) in pPICZB-His6, His6-tag kept, secreted from Pichia pastoris X33; N-glycosylated monomer, ~65 kDa deglycosylated; covalent FAD

AmPDH2 = molecular target: T2, AmPDH2 (Macropsalliota meleagris, UniProt Q3L243); assay: steady-state kinetics, absorbance at […] nm; details: electron acceptor; 25 mM D-glucose, 100 mM Na borate pH 8.5, 30 °C; read-out: AmPDH2 / K m
T2 construct: gene pdh2; full-length pdh2 (600 aa precursor) in pPICZB-His6, His6-tag kept, secreted from Pichia pastoris X33; N-glycosylated, ~65 kDa deglycosylated; covalent FAD

AmPDH1 [2] = molecular target: T1, AmPDH1; assay: steady-state kinetics, absorbance at […] nm; details: electron acceptor; 25 mM D-glucose, 100 mM Na borate pH 8.5, 30 °C; read-out: AmPDH1 / K m
AmPDH3 = molecular target: T3, AmPDH3 (Macropsalliota meleagris, UniProt Q0R4L2); assay: steady-state kinetics, absorbance at […] nm; details: electron acceptor; 25 mM D-glucose, 100 mM Na borate pH 8.5, 30 °C; read-out: AmPDH3 / K m
T3 construct: gene pdh3; full-length pdh3 (600 aa precursor) in pPICZB-His6, His6-tag kept, secreted from Pichia pastoris X33; strongly N-glycosylated, ~65 kDa deglycosylated; standard yellow form with covalent FAD

AmPDH1 [3] = molecular target: T1, AmPDH1; assay: steady-state kinetics, absorbance at […] nm; details: read-out: AmPDH1 / K m

T1 sequence (Q3L245 26-602): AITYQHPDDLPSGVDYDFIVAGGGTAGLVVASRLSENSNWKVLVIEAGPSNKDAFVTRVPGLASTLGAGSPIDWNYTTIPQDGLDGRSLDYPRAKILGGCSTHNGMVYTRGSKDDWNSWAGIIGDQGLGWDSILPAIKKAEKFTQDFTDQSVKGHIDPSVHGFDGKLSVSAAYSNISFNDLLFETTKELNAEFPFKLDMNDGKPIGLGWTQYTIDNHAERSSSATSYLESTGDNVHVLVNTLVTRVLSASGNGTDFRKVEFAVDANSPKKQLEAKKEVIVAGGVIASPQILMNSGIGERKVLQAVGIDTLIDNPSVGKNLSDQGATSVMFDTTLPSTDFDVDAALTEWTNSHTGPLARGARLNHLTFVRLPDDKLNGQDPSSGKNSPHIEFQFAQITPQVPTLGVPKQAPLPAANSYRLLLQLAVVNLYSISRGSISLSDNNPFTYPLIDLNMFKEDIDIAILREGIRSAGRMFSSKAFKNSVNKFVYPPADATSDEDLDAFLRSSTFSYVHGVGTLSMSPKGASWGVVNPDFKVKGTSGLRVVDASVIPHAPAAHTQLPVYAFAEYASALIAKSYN
T2 sequence (Q3L243 26-600): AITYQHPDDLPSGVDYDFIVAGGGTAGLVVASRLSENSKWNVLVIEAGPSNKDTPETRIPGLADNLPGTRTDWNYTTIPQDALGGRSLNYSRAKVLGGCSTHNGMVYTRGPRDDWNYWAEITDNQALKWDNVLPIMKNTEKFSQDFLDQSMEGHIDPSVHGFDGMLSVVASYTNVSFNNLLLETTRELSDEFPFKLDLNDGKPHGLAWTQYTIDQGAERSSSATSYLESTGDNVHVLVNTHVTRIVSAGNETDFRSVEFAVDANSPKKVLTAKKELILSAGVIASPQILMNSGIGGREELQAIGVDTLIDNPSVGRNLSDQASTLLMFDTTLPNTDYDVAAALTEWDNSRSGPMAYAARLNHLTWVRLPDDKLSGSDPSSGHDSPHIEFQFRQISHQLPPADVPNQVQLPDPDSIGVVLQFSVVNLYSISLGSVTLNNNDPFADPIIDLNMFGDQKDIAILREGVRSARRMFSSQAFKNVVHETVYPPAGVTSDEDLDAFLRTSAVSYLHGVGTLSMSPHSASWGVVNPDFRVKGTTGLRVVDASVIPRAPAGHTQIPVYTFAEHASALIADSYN
T3 sequence (Q0R4L2 26-600): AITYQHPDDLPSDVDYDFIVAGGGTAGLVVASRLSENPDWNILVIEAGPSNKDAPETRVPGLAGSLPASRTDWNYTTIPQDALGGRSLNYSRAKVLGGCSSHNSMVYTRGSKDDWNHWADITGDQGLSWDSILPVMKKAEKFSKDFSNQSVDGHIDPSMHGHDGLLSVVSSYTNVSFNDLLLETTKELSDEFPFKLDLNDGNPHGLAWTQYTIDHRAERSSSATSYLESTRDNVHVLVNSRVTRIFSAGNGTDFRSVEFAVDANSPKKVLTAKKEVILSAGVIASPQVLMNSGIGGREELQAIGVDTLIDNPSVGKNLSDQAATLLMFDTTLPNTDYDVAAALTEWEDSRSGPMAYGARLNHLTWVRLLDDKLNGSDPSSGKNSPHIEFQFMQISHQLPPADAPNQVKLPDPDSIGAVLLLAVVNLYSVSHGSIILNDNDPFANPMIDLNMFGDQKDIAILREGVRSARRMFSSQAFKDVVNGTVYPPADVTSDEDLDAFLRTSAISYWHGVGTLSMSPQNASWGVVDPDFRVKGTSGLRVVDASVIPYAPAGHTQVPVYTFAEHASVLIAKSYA

SMILES: OC[C@H]1OC(O)[C@H](O)[C@@H](O)[C@@H]1O (stereo partly drawn) [D-glucose]
- Km (AmPDH1 [1]): 820 ± 10 µM

SMILES: C1=CCC=C1.C1=CCC=C1.[Fe+3] [ferrocenium cation]
- Km (AmPDH2): 20.1 ± 2.3 µM
- Km (AmPDH1 [2]): 161 ± 38 µM
- Km (AmPDH3): 10.3 ± 0.9 µM

SMILES: O=C1C=CC(=O)C=C1 [1,4-benzoquinone]
- Km (AmPDH1 [3]): 1380 ± 280 µM
